Test results published in patent US20140205582A1, “MEGAKARYOCYTE PROGENITOR CELLS FOR PRODUCTION OF PLATELETS” (CELLERANT THERAPEUTICS, INC., priority 2011, published 2014).
“Also recorded” adds a separate entry of the source.

System: human CD34+ cells
Assay: Expansion of CD34+ cells into MKPs in serum-free culture
Type: cell-based
Details: 60 ng/ml IL-9 with TPO mimetic and IL-1, 8 days, 3 donors
Text: Isolation of human CD34^+ cells. G-CSF mobilized peripheral blood was harvested from healthy donors via leukapheresis (see, e.g., Kawamoto et al. (2009) Stem Cells 27:2857). CD34+ cells were positively selected using magnetic beads (Dynal, Lake Success, N.Y.) linked to anti-CD34 monoclonal antibody on an Isolex Device (Baxter, Deerfield, Ill.). […] Aliquots of 15-20×10^6 cells/ml were cryopreserved until use.
Expansion of CD34^+ cells. CD34^+ cells from donors were thawed, pooled as indicated, and seeded at 5×10^5 cells/ml in serum-free X-vivo 15 medium (Lonza, Walkersville, Md.) supplemented with IX GlutaMAX (Invitrogen, Carlsbad, Calif.). Cytokines were added as follows. […] Cultures were incubated at 37° C. in a humidified atmosphere containing 5% carbon dioxide. Viable cells were counted daily and cell concentration was readjusted to about 5×10^5 cells/ml by the addition of fresh medium with cytokines.
Analysis of MKPs. Cell surface marker expression was analyzed by flow cytometry using CD15b, CD33, CD34, CD41, CD42a, CD90, and CD184 antibodies. Prior to antibody staining, cells were washed with HBSS containing 2% BSA and blocked with rat and mouse IgG (SouthernBiotech, Birmingham, AL) for 10 minutes at 4° C. […]

Q: For “IL-9: interleukin-9 cytokine, also known as megakaryoblast growth factor”, which “effect on number of MKPs” value is on record?
A: increased the number of MKPs from all 3 donors; also recorded: increases the size of all populations
